Laboratory results reported in PubChem BioAssay AID192 (DTP/NCI, 2004).
Where “and” joins values, the source holds several entries; their conditions need not be identical. Identical values can stand only once. Inconclusive results and toxic doses are left out.

Tested on: BDF1 mice, B16 melanoma ip, median survival T/C
Assay: NCI In Vivo Anticancer Drug Screen. Data for tumor model B16 Melanoma (intraperitoneal) in B6D2F1 (BDF1) mice
Conditions: endpoint: median survival time, higher = longer survival
How it was run: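 Tumor-bearing mice received test compound or vehicle. Survival or tumor size was then measured in both groups. The treated-group figure was divided by the control-group figure.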

[1] = dose: 50.0 mg/kg/injection, schedule: Q04DX003 (ip), vehicle: Klucel (hydroxypropylcellulose) (HPC)
[2] = dose: 100.0 mg/kg/injection, schedule: Q04DX003 (ip), vehicle: Klucel (hydroxypropylcellulose) (HPC)
[3] = dose: 400.0 mg/kg/injection, schedule: Q04DX003 (ip), vehicle: Klucel (hydroxypropylcellulose) (HPC)
[4] = dose: 100.0 mg/kg/injection, schedule: Q01DX009 (ip), vehicle: saline
[5] = dose: 200.0 mg/kg/injection, schedule: Q01DX009 (ip), vehicle: saline
[6] = dose: 1.56 mg/kg/injection, schedule: Q01DX009 (ip), vehicle: saline
[7] = dose: 12.5 mg/kg/injection, schedule: Q01DX009 (ip), vehicle: saline with Tween-80
[8] = dose: 25.0 mg/kg/injection, schedule: Q01DX009 (ip), vehicle: saline with Tween-80
[9] = dose: 12.5 mg/kg/injection, schedule: Q01DX009 (ip), vehicle: Klucel (hydroxypropylcellulose) (HPC)
[10] = dose: 25.0 mg/kg/injection, schedule: Q01DX009 (ip), vehicle: Klucel (hydroxypropylcellulose) (HPC)
[11] = dose: 50.0 mg/kg/injection, schedule: Q01DX009 (ip), vehicle: Klucel (hydroxypropylcellulose) (HPC)
[12] = dose: 100.0 mg/kg/injection, schedule: Q01DX009 (ip), vehicle: Klucel (hydroxypropylcellulose) (HPC)
[13] = dose: 200.0 mg/kg/injection, schedule: Q01DX009 (ip), vehicle: Klucel (hydroxypropylcellulose) (HPC)
[14] = dose: 1.56 mg/kg/injection, schedule: Q01DX009 (ip), vehicle: Klucel (hydroxypropylcellulose) (HPC)
[15] = dose: 3.12 mg/kg/injection, schedule: Q01DX009 (ip), vehicle: Klucel (hydroxypropylcellulose) (HPC)
[16] = dose: 6.25 mg/kg/injection, schedule: Q01DX009 (ip), vehicle: Klucel (hydroxypropylcellulose) (HPC)
[17] = dose: 400.0 mg/kg/injection, schedule: Q01DX009 (ip), vehicle: Klucel (hydroxypropylcellulose) (HPC)
[18] = dose: 6.25 mg/kg/injection, schedule: Q01DX009 (ip), vehicle: saline

CCC(C)Nc1ccc(N)cc1 (stereo not given)
T/C (dose: 0.09 mg/kg/injection, schedule: Q01DX009 (ip), vehicle: Klucel (hydroxypropylcellulose) (HPC)): 97 % of control | T/C (dose: 0.18 mg/kg/injection, schedule: Q01DX009 (ip), vehicle: Klucel (hydroxypropylcellulose) (HPC)): 99 % of control | T/C (dose: 0.37 mg/kg/injection, schedule: Q01DX009 (ip), vehicle: Klucel (hydroxypropylcellulose) (HPC)): 89 % of control | T/C (dose: 0.75 mg/kg/injection, schedule: Q01DX009 (ip), vehicle: Klucel (hydroxypropylcellulose) (HPC)): 99 % of control

S=C(N=Nc1ccccc1)NNc1ccccc1
T/C (dose: 18.8 mg/kg/injection, schedule: Q04DX003 (ip), vehicle: saline with Tween-80): 102 % of control | T/C (dose: 18.9 mg/kg/injection, schedule: Q01DX009 (ip), vehicle: saline with Tween-80): 88 % of control | T/C (dose: 37.5 mg/kg/injection, schedule: Q01DX009 (ip), vehicle: saline with Tween-80): 93 % of control | T/C (dose: 37.5 mg/kg/injection, schedule: Q04DX003 (ip), vehicle: saline with Tween-80): 92 % of control | T/C (dose: 75.0 mg/kg/injection, schedule: Q04DX003 (ip), vehicle: saline with Tween-80): 92 % of control | T/C (dose: 150.0 mg/kg/injection, schedule: Q04DX003 (ip), vehicle: saline with Tween-80): 97 % of control

C=CCOCC(O)CN(C)c1ccccc1 (stereo not given)
T/C (dose: 25.0 mg/kg/injection, schedule: Q04DX003 (ip), vehicle: Klucel (hydroxypropylcellulose) (HPC)): 92 % of control | T/C [1]: 95 % of control | T/C [2]: 89 % of control and 90 % of control | T/C [3]: 88 % of control

CCCCCC(C)(O)CCCCC
T/C [4]: 107 % of control | T/C [5]: 92 % of control

O=C1CC2(CCCCC2)CO1
T/C (dose: 0.09 mg/kg/injection, schedule: Q01DX009 (ip), vehicle: saline): 102 % of control | T/C (dose: 0.19 mg/kg/injection, schedule: Q01DX009 (ip), vehicle: saline): 95 % of control | T/C (dose: 0.39 mg/kg/injection, schedule: Q01DX009 (ip), vehicle: saline): 91 % of control | T/C (dose: 0.78 mg/kg/injection, schedule: Q01DX009 (ip), vehicle: saline): 95 % of control | T/C [6]: 95 % of control

COc1ccc(N=O)c(O)c1
T/C (dose: 6.25 mg/kg/injection, schedule: Q01DX009 (ip), vehicle: saline with Tween-80): 97 % of control | T/C [7]: 97 % of control | T/C [8]: 90 % of control | T/C (dose: 25.0 mg/kg/injection, schedule: Q01DX009 (ip), vehicle: saline): 197 % of control | T/C (dose: 50.0 mg/kg/injection, schedule: Q01DX009 (ip), vehicle: saline with Tween-80): 109 % of control | T/C (dose: 50.0 mg/kg/injection, schedule: Q01DX009 (ip), vehicle: saline): 95 % of control | T/C [4]: 90 % of control

COc1ccc(Nc2ccnc3cc(Cl)ccc23)cc1CN(CCCl)CCCl
T/C (dose: 1.25 mg/kg/injection, schedule: Q01DX009 (ip), vehicle: Klucel (hydroxypropylcellulose) (HPC)): 118 % of control | T/C (dose: 2.5 mg/kg/injection, schedule: Q01DX009 (ip), vehicle: Klucel (hydroxypropylcellulose) (HPC)): 94 % of control

CC(=O)CCN1C(=O)c2ccccc2C1=O
T/C [9]: 96 % of control | T/C [10]: 103 % of control | T/C [11]: 95 % of control (2×) and 101 % of control | T/C [12]: 99 % of control and 102 % of control | T/C [13]: 94 % of control and 98 % of control and 112 % of control

Cc1ccc(S(=O)(=O)N=S2CCCC2)cc1
T/C [1]: 100 % of control | T/C [2]: 102 % of control | T/C (dose: 200.0 mg/kg/injection, schedule: Q04DX003 (ip), vehicle: Klucel (hydroxypropylcellulose) (HPC)): 103 % of control | T/C [3]: 102 % of control

CC(=O)OC1C2(CC3N4C(=O)C5(CO)SSC4(CC31O)C(=O)N5C)OC(C)C(C)(C)C2=O (stereo not given)
T/C (dose: 0.08 mg/kg/injection, schedule: Q01DX009 (ip), vehicle: saline with Tween-80): 96 % of control | T/C (dose: 0.16 mg/kg/injection, schedule: Q01DX009 (ip), vehicle: saline with Tween-80): 101 % of control | T/C (dose: 0.3 mg/kg/injection, schedule: Q01DX009 (ip), vehicle: saline with Tween-80): 88 % of control | T/C (dose: 0.6 mg/kg/injection, schedule: Q01DX009 (ip), vehicle: saline with Tween-80): 98 % of control

CC(=O)NCC1(c2ccccc2)CCN(CCCC(=O)c2ccc(F)cc2)CC1
T/C [11]: 93 % of control | T/C [12]: 106 % of control

N=C(N)c1nn(C2OC(CO)C(O)C2O)c2ncnc(N)c12 (stereo not given)
T/C (dose: 0.78 mg/kg/injection, schedule: Q01DX009 (ip), vehicle: Klucel (hydroxypropylcellulose) (HPC)): 97 % of control | T/C [14]: 98 % of control | T/C [15]: 93 % of control and 99 % of control | T/C [16]: 102 % of control | T/C [9]: 90 % of control | T/C [10]: 101 % of control

COC(=O)c1ccc(Cl)nc1
T/C [12]: 94 % of control | T/C [17]: 94 % of control

O=c1[nH]c(=S)[nH]cc1Oc1ccc(I)cc1
T/C [9]: 90 % of control | T/C [10]: 86 % of control | T/C [11]: 91 % of control

COc1cc2cc[n+]3c(C)c4cc5c(cc4cc3c2cc1OC)OCO5 (tested in a mixture with another compound)
T/C [18]: 94 % of control | T/C (dose: 12.5 mg/kg/injection, schedule: Q01DX009 (ip), vehicle: saline): 105 % of control

O=C(O)C(Br)C(Br)c1ccccc1 (stereo not given)
T/C (dose: 100.0 mg/kg/injection, schedule: Q04DX003 (ip), vehicle: saline with Tween-80): 86 % of control | T/C (dose: 200.0 mg/kg/injection, schedule: Q04DX003 (ip), vehicle: saline with Tween-80): 93 % of control | T/C (dose: 400.0 mg/kg/injection, schedule: Q04DX003 (ip), vehicle: saline with Tween-80): 86 % of control

NC(=O)CC(N)C(=O)O (stereo not given)
T/C (dose: 50.0 mg/kg/injection, schedule: Q01DX009 (ip), vehicle: other): 99 % of control | T/C (dose: 100.0 mg/kg/injection, schedule: Q01DX009 (ip), vehicle: other): 96 % of control | T/C [4]: 92 % of control | T/C (dose: 200.0 mg/kg/injection, schedule: Q01DX009 (ip), vehicle: other): 105 % of control | T/C [5]: 87 % of control | T/C (dose: 400.0 mg/kg/injection, schedule: Q01DX009 (ip), vehicle: other): 96 % of control | T/C (dose: 400.0 mg/kg/injection, schedule: Q01DX009 (ip), vehicle: saline): 87 % of control | T/C (dose: 800.0 mg/kg/injection, schedule: Q01DX009 (ip), vehicle: other): 104 % of control | T/C (dose: 1600.0 mg/kg/injection, schedule: Q01DX009 (ip), vehicle: other): 103 % of control

COc1ccc2nc3cc(Cl)ccc3c(NC(C)CCCN(CCCl)CCCl)c2c1 (stereo not given)
T/C (dose: 0.12 mg/kg/injection, schedule: Q01DX009 (ip), vehicle: saline): 114 % of control | T/C (dose: 0.25 mg/kg/injection, schedule: Q01DX009 (ip), vehicle: saline): 105 % of control | T/C (dose: 0.5 mg/kg/injection, schedule: Q01DX009 (ip), vehicle: saline): 105 % of control | T/C (dose: 0.62 mg/kg/injection, schedule: Q04DX003 (ip), vehicle: saline with Tween-80): 110 % of control | T/C (dose: 1.25 mg/kg/injection, schedule: Q04DX003 (ip), vehicle: saline with Tween-80): 110 % of control

CCOC(C[Se][Se]CC(OCC)OCC)OCC
T/C [6]: 99 % of control | T/C (dose: 3.13 mg/kg/injection, schedule: Q01DX009 (ip), vehicle: saline): 104 % of control | T/C [18]: 95 % of control

CCOC(=O)C(C)Oc1ccccc1[N+](=O)[O-] (stereo not given)
T/C [12]: 103 % of control | T/C [13]: 96 % of control | T/C [17]: 103 % of control

CCc1ccc(NC(=O)NC(C)C)cc1
T/C [11]: 112 % of control | T/C [12]: 109 % of control | T/C [13]: 103 % of control

COc1cc2c(c(OC)c1OC)-c1ccc(SCc3ccccc3)c(=O)cc1[C@@H](NC(C)=O)CC2
T/C [14]: 91 % of control and 111 % of control | T/C [15]: 102 % of control and 107 % of control | T/C [16]: 101 % of control and 106 % of control | T/C [9]: 109 % of control and 111 % of control | T/C [10]: 113 % of control

CC(CN(C)C)CN1c2ccccc2Sc2ccccc21 (stereo not given)
T/C [7]: 104 % of control | T/C [8]: 101 % of control

COc1ccccc1Oc1ccc(N=Cc2ccc(C)cc2)cc1
T/C [11]: 102 % of control | T/C [12]: 86 % of control and 102 % of control | T/C [13]: 100 % of control and 111 % of control | T/C [17]: 86 % of control
